For one data set, the target named is Egl nine homolog 1 (Homo sapiens, UniProt Q9GZT9). Put plainly: Inhibition of PHD2 (unknown origin) using [1-14C]alphaKG as substrate assessed as substrate decarboxylation by measuring 14CO2 production incubated for 2 hrs by microplate reader analysis.
In data set [1] the target is Voltage-gated inwardly rectifying potassium channel KCNH2 (Homo sapiens, UniProt Q12809). The data set is described as follows: Inhibition of human ERG upto 100 uM. The class given is toxicity.
Chain of Voltage-gated inwardly rectifying potassium channel KCNH2 (Q12809 whole entry): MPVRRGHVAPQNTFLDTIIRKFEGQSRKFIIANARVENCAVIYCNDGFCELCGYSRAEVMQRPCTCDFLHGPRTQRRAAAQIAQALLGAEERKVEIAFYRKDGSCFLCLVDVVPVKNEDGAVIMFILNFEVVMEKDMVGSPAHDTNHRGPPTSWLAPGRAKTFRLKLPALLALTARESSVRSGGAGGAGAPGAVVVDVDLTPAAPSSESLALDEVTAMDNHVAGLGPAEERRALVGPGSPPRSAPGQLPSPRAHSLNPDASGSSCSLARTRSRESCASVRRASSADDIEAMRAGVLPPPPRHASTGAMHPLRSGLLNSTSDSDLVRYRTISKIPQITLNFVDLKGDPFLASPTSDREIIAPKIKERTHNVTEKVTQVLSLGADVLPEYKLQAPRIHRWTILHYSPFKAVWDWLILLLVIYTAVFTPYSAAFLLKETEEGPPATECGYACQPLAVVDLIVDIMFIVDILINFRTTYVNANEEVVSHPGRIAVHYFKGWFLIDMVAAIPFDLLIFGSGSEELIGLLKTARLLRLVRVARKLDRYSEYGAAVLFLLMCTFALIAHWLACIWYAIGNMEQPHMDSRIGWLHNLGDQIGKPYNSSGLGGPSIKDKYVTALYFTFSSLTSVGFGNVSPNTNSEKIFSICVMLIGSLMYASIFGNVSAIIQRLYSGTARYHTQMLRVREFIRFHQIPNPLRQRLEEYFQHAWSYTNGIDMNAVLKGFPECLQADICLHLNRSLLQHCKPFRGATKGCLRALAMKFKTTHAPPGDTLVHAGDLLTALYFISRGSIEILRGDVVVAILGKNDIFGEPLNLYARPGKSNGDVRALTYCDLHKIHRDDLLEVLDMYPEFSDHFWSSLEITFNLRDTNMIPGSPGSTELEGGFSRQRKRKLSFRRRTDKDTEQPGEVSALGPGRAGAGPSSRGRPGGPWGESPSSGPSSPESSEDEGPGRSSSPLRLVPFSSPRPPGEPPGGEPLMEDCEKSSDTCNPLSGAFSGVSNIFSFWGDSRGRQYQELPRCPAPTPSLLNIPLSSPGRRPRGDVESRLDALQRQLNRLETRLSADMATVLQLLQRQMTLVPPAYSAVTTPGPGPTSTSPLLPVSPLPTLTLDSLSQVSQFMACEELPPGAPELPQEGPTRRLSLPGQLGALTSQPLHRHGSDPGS

For orientation: IC50 means the concentration needed to halve the response being measured.

Chain of Egl nine homolog 1 (Q9GZT9 whole entry): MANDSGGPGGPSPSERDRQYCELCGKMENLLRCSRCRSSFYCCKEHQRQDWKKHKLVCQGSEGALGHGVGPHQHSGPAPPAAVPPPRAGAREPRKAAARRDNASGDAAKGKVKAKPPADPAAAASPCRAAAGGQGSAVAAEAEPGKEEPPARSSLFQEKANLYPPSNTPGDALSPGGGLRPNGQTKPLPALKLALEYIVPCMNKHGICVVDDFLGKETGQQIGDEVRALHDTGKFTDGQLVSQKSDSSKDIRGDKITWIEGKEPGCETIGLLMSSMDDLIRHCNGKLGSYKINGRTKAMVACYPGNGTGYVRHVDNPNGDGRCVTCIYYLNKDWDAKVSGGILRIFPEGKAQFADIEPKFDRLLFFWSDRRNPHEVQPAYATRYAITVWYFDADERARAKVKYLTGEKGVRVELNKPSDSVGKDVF

Regarding `O=C(NCc1ccncc1)c1ncc2c(=O)n(Cc3ccccc3)ccc2c1O`, at Egl nine homolog 1, the IC50 is 200 nM. Regarding `O=C(NCc1ccnnc1)c1ncc2c(=O)n(C3CCCCC3)ccc2c1O`, in data set [1], the “inhibition (INH)” value is “Not_active”.

The values are drawn from ChEMBL document CHEMBL6115025, “Discovery of Novel, Potent, Orally Bioavailable and Efficacious, Hypoxia-Inducible Factor Prolyl Hydroxylase Inhibitors for Hematopoietic Stem Cell Mobilization” (J Med Chem, 2025).
